PMC3914206

Legend:
Format in all cases: binding
panel of 442 kinases [1] = molecular target: T1, panel of 442 kinases (Homo sapiens, UniProt Q9BX84); conditions: kinase TRPM6; compound concentration 10 µM
T1 construct: purchased KINOMEscan
Excerpt: (§1) We assessed the selectivity of members of this scaffold using the KINOMEscan methodology across a near comprehensive panel of 442 kinases [[18,27]].

panel of 442 kinases [2] = molecular target: T2, panel of 442 kinases (Homo sapiens, UniProt P51812); conditions: Compound Concentration 10 µM
T2 construct: purchased KINOMEscan
Excerpt: as §1

panel of 442 kinases [3] = molecular target: T3, panel of 442 kinases (Homo sapiens, UniProt Q06418); conditions: kinase TYRO3; compound concentration 10 µM
T3 construct: purchased KINOMEscan
T3 sequence (Q06418 41-890): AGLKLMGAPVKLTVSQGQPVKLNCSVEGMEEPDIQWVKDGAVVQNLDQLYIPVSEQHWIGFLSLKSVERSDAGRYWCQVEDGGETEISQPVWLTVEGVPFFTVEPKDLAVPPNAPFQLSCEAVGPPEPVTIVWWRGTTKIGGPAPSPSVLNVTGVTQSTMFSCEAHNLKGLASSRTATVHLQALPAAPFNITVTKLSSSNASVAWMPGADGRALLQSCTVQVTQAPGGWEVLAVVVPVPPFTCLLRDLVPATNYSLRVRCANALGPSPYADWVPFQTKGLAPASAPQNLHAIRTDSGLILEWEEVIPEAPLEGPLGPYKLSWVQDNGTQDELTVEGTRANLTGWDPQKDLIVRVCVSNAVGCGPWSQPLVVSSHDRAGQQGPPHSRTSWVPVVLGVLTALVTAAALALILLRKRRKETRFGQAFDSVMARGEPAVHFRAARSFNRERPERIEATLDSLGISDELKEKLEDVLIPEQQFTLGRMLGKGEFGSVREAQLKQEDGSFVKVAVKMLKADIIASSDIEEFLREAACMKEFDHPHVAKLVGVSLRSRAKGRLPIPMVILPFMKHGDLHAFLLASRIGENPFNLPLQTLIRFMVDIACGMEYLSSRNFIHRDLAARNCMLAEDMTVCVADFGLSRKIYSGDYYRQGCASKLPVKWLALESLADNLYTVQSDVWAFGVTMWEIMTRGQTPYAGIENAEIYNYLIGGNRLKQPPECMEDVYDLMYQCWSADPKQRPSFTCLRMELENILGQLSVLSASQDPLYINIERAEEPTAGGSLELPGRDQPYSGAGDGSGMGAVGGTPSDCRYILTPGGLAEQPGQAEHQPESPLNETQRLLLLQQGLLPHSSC
Excerpt: as §1

T2 sequence (P51812 whole entry): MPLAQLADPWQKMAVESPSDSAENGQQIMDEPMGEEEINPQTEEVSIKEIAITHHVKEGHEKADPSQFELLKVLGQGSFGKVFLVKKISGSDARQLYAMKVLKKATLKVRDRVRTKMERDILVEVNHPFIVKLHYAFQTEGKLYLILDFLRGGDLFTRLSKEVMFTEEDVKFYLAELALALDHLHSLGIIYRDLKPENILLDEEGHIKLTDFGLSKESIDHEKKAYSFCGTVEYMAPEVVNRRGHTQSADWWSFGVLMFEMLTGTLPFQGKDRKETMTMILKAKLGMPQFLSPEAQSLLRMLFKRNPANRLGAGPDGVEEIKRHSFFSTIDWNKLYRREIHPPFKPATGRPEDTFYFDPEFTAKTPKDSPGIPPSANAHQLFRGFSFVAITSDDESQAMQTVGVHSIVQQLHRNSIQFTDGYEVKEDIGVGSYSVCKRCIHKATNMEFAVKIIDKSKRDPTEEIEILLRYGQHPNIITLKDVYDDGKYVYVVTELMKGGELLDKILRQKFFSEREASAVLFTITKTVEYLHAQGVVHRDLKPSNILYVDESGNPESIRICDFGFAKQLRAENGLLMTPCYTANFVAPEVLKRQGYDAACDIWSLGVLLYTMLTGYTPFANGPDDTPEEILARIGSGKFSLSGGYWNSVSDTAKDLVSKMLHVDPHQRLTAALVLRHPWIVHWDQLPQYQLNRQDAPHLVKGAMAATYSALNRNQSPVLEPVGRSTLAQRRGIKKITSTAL
T1 sequence (Q9BX84 whole entry): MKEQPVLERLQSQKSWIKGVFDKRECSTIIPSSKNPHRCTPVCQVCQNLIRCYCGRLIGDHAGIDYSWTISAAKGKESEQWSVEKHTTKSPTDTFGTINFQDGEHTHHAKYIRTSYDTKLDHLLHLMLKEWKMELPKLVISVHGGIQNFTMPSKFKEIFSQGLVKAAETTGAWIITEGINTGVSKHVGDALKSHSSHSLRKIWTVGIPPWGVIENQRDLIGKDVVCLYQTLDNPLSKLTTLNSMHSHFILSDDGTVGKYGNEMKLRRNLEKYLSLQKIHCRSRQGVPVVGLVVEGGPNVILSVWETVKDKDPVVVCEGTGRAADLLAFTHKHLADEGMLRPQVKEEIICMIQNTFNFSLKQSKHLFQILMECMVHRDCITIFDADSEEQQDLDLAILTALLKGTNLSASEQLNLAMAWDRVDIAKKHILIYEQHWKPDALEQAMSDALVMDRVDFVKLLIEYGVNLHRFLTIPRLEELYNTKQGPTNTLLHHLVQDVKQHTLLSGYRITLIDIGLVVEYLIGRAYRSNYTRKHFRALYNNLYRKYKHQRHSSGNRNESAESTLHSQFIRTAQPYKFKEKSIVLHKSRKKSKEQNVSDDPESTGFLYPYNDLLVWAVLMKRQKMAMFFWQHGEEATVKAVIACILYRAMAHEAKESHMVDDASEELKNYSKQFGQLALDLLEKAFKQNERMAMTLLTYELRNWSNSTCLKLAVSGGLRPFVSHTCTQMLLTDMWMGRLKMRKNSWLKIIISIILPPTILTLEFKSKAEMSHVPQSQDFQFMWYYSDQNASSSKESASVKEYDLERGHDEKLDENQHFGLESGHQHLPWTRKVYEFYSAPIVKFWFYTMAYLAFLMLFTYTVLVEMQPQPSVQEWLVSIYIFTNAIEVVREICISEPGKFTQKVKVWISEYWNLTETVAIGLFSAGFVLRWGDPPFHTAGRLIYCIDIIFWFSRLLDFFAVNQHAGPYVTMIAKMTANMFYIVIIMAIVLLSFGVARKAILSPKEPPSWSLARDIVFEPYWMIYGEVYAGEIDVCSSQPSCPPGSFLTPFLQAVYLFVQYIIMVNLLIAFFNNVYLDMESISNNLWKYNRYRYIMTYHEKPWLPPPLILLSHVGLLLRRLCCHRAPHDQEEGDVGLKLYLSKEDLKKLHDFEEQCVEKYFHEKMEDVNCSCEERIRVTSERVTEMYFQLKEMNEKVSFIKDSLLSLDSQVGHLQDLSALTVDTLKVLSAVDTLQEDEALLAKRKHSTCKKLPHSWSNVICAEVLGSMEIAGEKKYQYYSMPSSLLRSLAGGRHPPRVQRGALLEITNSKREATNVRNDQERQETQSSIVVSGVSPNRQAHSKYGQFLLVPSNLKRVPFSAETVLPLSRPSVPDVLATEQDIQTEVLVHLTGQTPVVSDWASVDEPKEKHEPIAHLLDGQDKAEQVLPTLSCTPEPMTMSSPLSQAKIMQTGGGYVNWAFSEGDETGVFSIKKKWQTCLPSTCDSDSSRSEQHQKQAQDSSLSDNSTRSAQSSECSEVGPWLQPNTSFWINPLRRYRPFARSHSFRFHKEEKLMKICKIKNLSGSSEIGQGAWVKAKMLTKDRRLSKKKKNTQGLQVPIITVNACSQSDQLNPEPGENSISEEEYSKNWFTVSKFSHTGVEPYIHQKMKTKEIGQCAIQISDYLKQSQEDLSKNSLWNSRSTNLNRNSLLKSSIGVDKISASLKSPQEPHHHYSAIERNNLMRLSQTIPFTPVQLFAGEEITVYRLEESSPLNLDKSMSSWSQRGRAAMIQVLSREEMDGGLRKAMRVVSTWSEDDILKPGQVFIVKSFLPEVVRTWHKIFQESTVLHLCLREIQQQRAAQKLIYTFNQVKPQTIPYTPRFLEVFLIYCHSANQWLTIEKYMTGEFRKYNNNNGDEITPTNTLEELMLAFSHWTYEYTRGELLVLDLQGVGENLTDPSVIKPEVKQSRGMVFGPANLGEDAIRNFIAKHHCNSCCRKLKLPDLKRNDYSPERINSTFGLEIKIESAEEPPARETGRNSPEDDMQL

Row | Compound | % Ctrl, TRPM6 (panel of 442 kinases [1]) [% Ctrl] | KINOMEscan: RSK2(Kin.Dom.1-N-terminal) (panel of 442 kinases [2]) | % Ctrl, TYRO3 (panel of 442 kinases [3]) [% Ctrl]
1 | COc1cc(C(=O)N2CCC(N3CCN(C)CC3)CC2)ccc1Nc1ncc2c(n1)N(C)c1ccccc1C(=O)N2C [15 (LRRK2-IN-1)] | 100 | 77 | 100
2 | CCOc1cc(C(=O)N2CCC(N3CCN(C)CC3)CC2)ccc1Nc1ncc2c(n1)N(C1CCCC1)c1ccccc1C(=O)N2C [Compound 26] | 94 | 100 | 100
3 | COc1cc(C(=O)N2CCC(N3CCN(C)CC3)CC2)ccc1Nc1ncc2c(n1)N1CCc3cccc(c31)C(=O)N2C [Compound 24] | 100 | – | 100
4 | COc1cc(C(=O)N2CCC(N3CCN(C)CC3)CC2)ccc1Nc1ncc2c(n1)N(C1CCCC1)c1ccccc1C(=O)N2C [Compound 25, 11-cyclopentyl-2-((2-methoxy-4-(4-(4-methylpiperazin-1-yl)piperidine-1-carbonyl)phenyl)amino)-5-methyl-5H-benzo[e]pyrimido[5,4-b][1,4]diazepin-6(11H)-one] | 100 | 100 | 100
